Laboratory results reported in patent US20120009152A1, “NITRIC OXIDE DONORS FOR TREATMENT OF DISEASE AND INJURY” (priority 2002, published 2012).

Assays:
Assay type in all cases: in vivo, rat
[1] = test system: BrdU immunoreactive cells in dentate gyrus, SVZ and OB; test: Cell proliferation (BrdU) in non-ischemic aged rats; conditions: non-ischemic 18-month-old rats; DETA/NONOate 0.4 mg/kg daily 7 days; vs saline
Experimental: […] […] I.V bolus doses of DETA/NONOate (0.1 mg/kg each, every 15 min, and total dose of 0.4 mg/kg) on the first experimental day and DETA/NONOate (0.4 mg/kg) was administered (i.p) daily for an additional 6 consecutive days. Rats that received saline were used as a control group. Bromodeoxyuridine (BrdU) was used as mitotic labeling to measure cell proliferation. Animals received daily i.p injections of BrdU (50 mg/kg, Sigma) on the first experimental day and subsequently for 14 consecutive days. Rats were sacrificed at 14 and 42 days after the treatment. BrdU immunoreactive nuclei were counted on a computer monitor to improve visualization and in one focal plane to avoid over-sampling. Structures were sampled either by selecting predetermined areas on each section (OB) or by analyzing entire structures on each section (SVZ and dentate gyrus) (Zhang et al., 2001). All BrdU immunoreactive-positive nuclei in these areas are presented as the number of the BrdU immunoreactive cells/mm^2. Density for the selected several sections was averaged to obtain a mean density value for each animal (Zhang et al., 2001).
The question of whether this induction of neurogenesis by means of an NO donor in young adult (3-4 month old) rats would also be present in older rats was also tested. […]

[2] = test system: rats subjected to embolic middle cerebral artery occlusion; test: Adhesive removal test after embolic MCA occlusion
Experimental: (§1) Male Wistar rats weighing 320 to 380 g were used in the present study. The middle cerebral artery (MCA) was occluded by placement of an embolus at the origin of the MCA.
(§2) Ischemic rats (n=9) were treated with the same volume of tap water as a control group. Functional tests were performed and body weight was measured before ischemia and at 4, 7, 14, 21, and 28 days after onset of MCA occlusion. All rats were killed 28 days after MCA occlusion. […] These rats were killed 1 hour after the last treatment for measurements of brain levels of cGMP. […] Experiments were also performed to examine brain PDE5, nonischemic rats and ischemic rats were killed at 2, 4, 24, 48, and 168 hours after the onset of ischemia (n=3 for each time point). Reverse transcription (RT)-polymerase chain reaction (PCR) was performed to detect PDE5 in brain tissue.
An adhesive removal test was used to measure somatosensory deficits and was performed before MCA occlusion and at 4, 7, 14, 21 and 28 days after MCA occlusion.

[3] = test system: rats subjected to embolic middle cerebral artery occlusion; test: Infarct volume 28 days after embolic MCA occlusion; conditions: 28 days after ischemia
Experimental: as §1, §2
Measurement of infarct volume was measured on 7 hematoxylin and eosin-stained coronal sections with the use of a Global Laboratory Image analysis program (Data Translation). Briefly, the area of both hemispheres and the infarct area (mm 2) were calculated by tracing the area on the computer screen. Infarct volume (mm 3) was determined by multiplying the appropriate area by the section interval thickness. The infarct volume is presented as the percent-age of infarct volume of the contralateral hemisphere (indirect volume calculation).

[4] = test system: nonischemic rats; test: Localized CBF by laser-Doppler flowmetry; conditions: sildenafil 2 mg/kg
Experimental: Ischemic rats (n=9) were treated with the same volume of tap water as a control group. Functional tests were performed and body weight was measured before ischemia and at 4, 7, 14, 21, and 28 days after onset of MCA occlusion. All rats were killed 28 days after MCA occlusion. […] These rats were killed 1 hour after the last treatment for measurements of brain levels of cGMP. […] Reverse transcription (RT)-polymerase chain reaction (PCR) was performed to detect PDE5 in brain tissue. Relative erythrocyte flow velocity was measured by laser-Doppler flowmetry (PeriFlux PF4 flowmeter; Perimed AB) in the tissue under the laser-Doppler flowmetry probe. 13 A burr hole 1.5 mm in diameter was drawn on the skull 2 mm posterior to the bregma and 6 mm lateral to midline. 13 The dura was left intact. After the application of mineral oil onto the burr hole, the probe was laced 0.5 mm above the dural surface. […] This measurement reflects relatively localized CBF. 14 Values of flow velocities are presented as a percentage of the contralateral hemispheric values.

With NCCN(CCN)/[N+]([O-])=N/O [DETANONOate, (Z)-1-[N-(2-aminoethyl)-N-(2-ammonioethyl)aminio]diazen-1-ium-1,2-diolate] the “number of proliferating cells (dentate gyrus, SVZ, OB)” value [1] was “significantly increased the number of proliferating cells”.

With CCCc1nn(C)c2c(=O)[nH]c(-c3cc(S(=O)(=O)N4CCN(C)CC4)ccc3OCC)nc12 [Sildenafil] the “Adhesive Removal Test” value ([2]; Sildenafil 2 mg/kg, 2 h, 4 d) was 96.4 ± 9.8 s, the “Adhesive Removal Test” value ([2]; Sildenafil 2 mg/kg, 2 h, 7 d) was 41.9 ± 8.4 s and the “Adhesive Removal Test” value ([2]; Sildenafil 2 mg/kg, 2 h, 14 d) was 27.6 ± 3.9 s. The “Adhesive Removal Test” value ([2]; Sildenafil 2 mg/kg, 2 h, 21 d) was 23.6 ± 5.1 s, the “Adhesive Removal Test” value ([2]; Sildenafil 2 mg/kg, 2 h, 28 d) was 15.9 ± 3.8 s and the “Adhesive Removal Test” value ([2]; Sildenafil 2 mg/kg, 2 h group, Before Ischemia (baseline)) was 7.0 ± 0.1 s. The “Adhesive Removal Test” value ([2]; Sildenafil 2 mg/kg, 24 h, 4 d) was 102 ± 6.6 s, the “Adhesive Removal Test” value ([2]; Sildenafil 2 mg/kg, 24 h, 7 d) was 49.4 ± 4.5 s and the “Adhesive Removal Test” value ([2]; Sildenafil 2 mg/kg, 24 h, 14 d) was 14.1 ± 1.3 s. The “Adhesive Removal Test” value ([2]; Sildenafil 2 mg/kg, 24 h, 21 d) was 14.0 ± 1.0 s, the “Adhesive Removal Test” value ([2]; Sildenafil 2 mg/kg, 24 h, 28 d) was 10.7 ± 0.9 s and the “Adhesive Removal Test” value ([2]; Sildenafil 2 mg/kg, 24 h group, Before Ischemia (baseline)) was 6.8 ± 0.3 s. For the same compound, the “Adhesive Removal Test” value ([2]; Sildenafil 5 mg/kg, 2 h, 4 d) was 100.7 ± 9.2 s, the “Adhesive Removal Test” value ([2]; Sildenafil 5 mg/kg, 2 h, 7 d) was 70.7 ± 10.8 s and the “Adhesive Removal Test” value ([2]; Sildenafil 5 mg/kg, 2 h, 14 d) was 38.6 ± 7.9 s. The “Adhesive Removal Test” value ([2]; Sildenafil 5 mg/kg, 2 h, 21 d) was 26.0 ± 6.6 s, the “Adhesive Removal Test” value ([2]; Sildenafil 5 mg/kg, 2 h, 28 d) was 14.8 ± 3.9 s and the “Adhesive Removal Test” value ([2]; Sildenafil 5 mg/kg, 2 h group, Before Ischemia (baseline)) was 16.7 ± 0.4 s. The “Infarct Volume, %” value ([3]; Sildenafil 2 mg/kg, 2 h, percentage of lesion relative to the contralateral hemisphere) was 35.2 ± 3.3%, the “Infarct Volume, %” value ([3]; Sildenafil 2 mg/kg, 24 h) was 35.5 ± 0.9% and the “Infarct Volume, %” value ([3]; Sildenafil 5 mg/kg, 2 h) was 37.7 ± 4.3%. For the same compound, the “duration of significantly increased localized CBF after administration” value [4] was 70 min and the “localized CBF levels” value ([4]; vs control rats) was “significantly increased localized CBF levels”.
